In patent US20100216875A1, “METHODS OF TREATING ALZHEIMER'S DISEASE” (priority 2006, published 2010):
Entries after “also recorded” stand apart in the source; their conditions may differ.

Columns and labels:
[1] = test system: β-secretase activity as measured by the APP-derived CTFβ fragment; test: guinea pig brain CTFβ (β-secretase activity) after icv infusion; assay type: in vivo; conditions: 0.15 mg/kg/day infused for 7 days; western blot
Protocol: To better evaluate the effects of CA074Me on β-secretase activity, relative brain levels of CTRβ were assessed by western blots. The CTRβ fragment results from processing of APP at the β-secretase site, which produces the C-terminal β-secretase fragment (CTFβ) of 12 kDA on SDS-PAGE gels.
Brains from animals described in relation to FIG. 10 were extracted and analyzed for CTFβ by […].
Cathepsin B inhibitors were administered directly into the brain by icy infusion with minipumps in time course studies at different doses. Guinea pigs were infused with compounds using Alzet pumps (2.5 μl/hr, with compounds at 1 mg/ml in saline) for 7 and 30 days, and other times. This initial dose of compound was selected because E64d and CA074Me are effective at this dose. Each treatment group consisted of eight to ten guinea pigs, including the vehicle control group.

[2] = test system: primary neuronal chromaffin cells; test: Aβ secretion by primary neuronal chromaffin cell cultures; assay type: cell-based, bovine; conditions: 50 μM for 18 hours
Protocol: Neuronal bovine chromaffin cells in primary culture can be used to select compounds that affect Aβ in the regulated or constitutive pathway. Regulated secretory Aβ is determined by measuring Aβ in the cell culture media after inducing the cells to secrete using a triggering stimulus, such as KCl. The constitutive secretory Aβ is determined by measuring Aβ in cell culture media (also called “conditioned media”) from resting cells. […] Regulated secretion was induced by exposing the cells to KCl (50 mM) for 15 minutes. […] Treated cells (+) received CA074Me (50 μM) for 18 hours. The Aβ40 produced by regulated secretion of the treated cells is about 50% less than that produced from regulated secretion by untreated cells. […]
Reversible cathepsin B compounds that inhibited Aβ production in isolated secretory vesicles by at least 50% at 10 μM were tested for reduction of Aβ secreted from the regulated secretory pathway of primary neuronal chromaffin cells. […] Cells were incubated with inhibitors (first at 50 μM) for about 18 hours, and then KCl-induced secretion of Aβ from the regulated secretory pathway was analyzed, by incubating cells in 50 mM KCl for about 15 minutes and measurement of Aβ peptides in the secretion medium Inhibitor effects were more readily detected during increased rates of Aβ production, which can be induced by treatment of cells with PMA (phorbol myristate acetate, 100 nM). […]

[3] = test system: Aβ40 production from endogenous APP in regulated secretory vesicles isolated from chromaffin cells; test: Aβ production from endogenous APP in isolated regulated secretory vesicles; assay type: biochemical, bovine; conditions: inhibitor 10 μM
Protocol: Regulated secretory vesicles isolated from chromaffin cells naturally produce Aβ from endogenous APP when incubated at 37° C. in vitro for several hours. These vesicles can be used as an in vitro screen for compounds that inhibit Aβ production. […] The effects of cathepsin B inhibitors, CA074 (10 μM, ♦) and CA074Me (10 μM, □), on the production of Aβ40 from endogenous APP in regulated secretory vesicles isolated from chromaffin cells was evaluated in time course studies. […] Each inhibitor was tested in triplicate; values represent x±sem (*statistically significant with p<0.05).
Cathepsin B compounds that were effective inhibitors of endogenous II-secretase activity were tested for inhibition of Aβ peptide production in regulated secretory vesicles. The effect of reversible cathepsin B compounds on production of Aβ40 and Aβ42 in isolated chromaffin vesicles was tested by incubating candidate inhibitors (at 10 μM) with lysed chromaffin vesicles under identical conditions as for the β-secretase assay for 8 hours. […] After incubation, Aβ40 and Aβ42 was measured by ELISA assays, as described for measurement of Aβ peptides in brain extracts. Each candidate inhibitor was assayed in triplicate.

[4] = mice, rats and dogs; cited from earlier work
[5] = healthy young males, cited from earlier work

SMILES	decrease in the amount of brain CTFβ [1]	reduction of Aβ40 produced by regulated secretion ([2]; KCl (50 mM) 15 minutes, vs untreated cells)	Aβ40 produced by constitutive secretion vs untreated cells ([2]; resting cells)	effect on Aβ production in isolated regulated secretory vesicles [3]	therapeutic window / LD50 [4]	pulse, resting blood pressure, body temperature, grip force ([5]; 5 mg/kg/day oral)	subjective or objective symptoms, clinical tests ([5]; 5 mg/kg/day oral)	absorption ([5]; oral)	accumulation ([5]; oral)	total dose collected in urine ([5]; oral)
CCCNC(=O)[C@H]1O[C@@H]1C(=O)N[C@H](C(=O)N1CCC[C@H]1C(=O)OC)[C@@H](C)CC [CA074Me]	50%	about 50%	the same	inhibited; also recorded: block Aβ production						
CCOC(=O)[C@H]1O[C@@H]1C(=O)N[C@@H](CC(C)C)C(=O)NCCC(C)C [E64d]					excellent therapeutic window	No change	no change in subjective or objective symptoms or clinical tests	good absorption	no accumulation occurred	about 30%
